Assay results published in patent US11021467B2, “Phosphatidylinositol 3-kinase inhibitors” (Gilead Sciences, Inc., priority 2014, dated 2021).
pIC50: −log10 of the molar value.

What was measured:
Assay in all cases: TR-FRET enzymatic activity assay against PI3K isoforms
Assay type in all cases: biochemical
PI3Kδ = PI3Kδ (Homo sapiens (Human), UniProt O00329); settings: 2×Km ATP, 30 minutes at 25° C.
Text: (§1) The compounds of formula (I) were characterized for their enzymatic activity against the PI3K isoforms. […] TR-FRET monitored the formation of 3,4,5-inositol triphosphate molecule that competed with fluorescently labeled PIP3 for binding to the GRP-1 pleckstrin homology domain protein.

PI3Kγ = PI3Kγ (Homo sapiens (Human), UniProt P48736); settings: 2×Km ATP, 30 minutes at 25° C.
Text: as §1

PI3Kβ = PI3Kβ (Homo sapiens (Human), UniProt P42338); settings: PI3Kβ, TR-FRET, 2×Km ATP, 30 minutes at 25° C.
Text: as §1

Sequence of PI3Kδ (O00329 whole entry, the tested form may be a part, canonical isoform): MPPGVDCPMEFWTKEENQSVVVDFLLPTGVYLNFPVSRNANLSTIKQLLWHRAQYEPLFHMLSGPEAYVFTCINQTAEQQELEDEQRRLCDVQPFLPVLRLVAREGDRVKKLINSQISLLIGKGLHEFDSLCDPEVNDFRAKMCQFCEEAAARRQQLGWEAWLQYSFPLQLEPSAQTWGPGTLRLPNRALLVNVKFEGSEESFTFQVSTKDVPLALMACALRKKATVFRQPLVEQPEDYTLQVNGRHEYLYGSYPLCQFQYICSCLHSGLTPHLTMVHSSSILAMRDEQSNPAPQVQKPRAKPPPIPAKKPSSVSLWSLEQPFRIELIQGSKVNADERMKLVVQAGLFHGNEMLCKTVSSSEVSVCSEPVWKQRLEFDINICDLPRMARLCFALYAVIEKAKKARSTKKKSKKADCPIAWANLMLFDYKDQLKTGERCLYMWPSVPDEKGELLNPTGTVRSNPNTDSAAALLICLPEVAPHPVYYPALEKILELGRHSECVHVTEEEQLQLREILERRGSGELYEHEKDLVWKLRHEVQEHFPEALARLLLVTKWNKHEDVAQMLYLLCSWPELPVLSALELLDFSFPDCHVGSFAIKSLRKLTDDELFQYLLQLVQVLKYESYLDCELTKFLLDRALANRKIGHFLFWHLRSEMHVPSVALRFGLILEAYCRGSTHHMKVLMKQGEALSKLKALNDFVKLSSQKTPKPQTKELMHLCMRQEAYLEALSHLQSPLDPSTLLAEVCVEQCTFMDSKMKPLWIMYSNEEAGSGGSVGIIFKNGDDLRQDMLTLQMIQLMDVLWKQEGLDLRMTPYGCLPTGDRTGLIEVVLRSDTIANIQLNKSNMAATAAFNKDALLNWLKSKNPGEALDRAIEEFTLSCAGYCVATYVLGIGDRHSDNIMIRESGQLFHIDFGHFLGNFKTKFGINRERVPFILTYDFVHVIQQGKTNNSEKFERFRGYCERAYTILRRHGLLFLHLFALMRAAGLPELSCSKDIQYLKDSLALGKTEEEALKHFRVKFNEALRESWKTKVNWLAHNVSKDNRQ
Sequence of PI3Kδ (P27986 whole entry partner, the tested form may be a part, canonical isoform): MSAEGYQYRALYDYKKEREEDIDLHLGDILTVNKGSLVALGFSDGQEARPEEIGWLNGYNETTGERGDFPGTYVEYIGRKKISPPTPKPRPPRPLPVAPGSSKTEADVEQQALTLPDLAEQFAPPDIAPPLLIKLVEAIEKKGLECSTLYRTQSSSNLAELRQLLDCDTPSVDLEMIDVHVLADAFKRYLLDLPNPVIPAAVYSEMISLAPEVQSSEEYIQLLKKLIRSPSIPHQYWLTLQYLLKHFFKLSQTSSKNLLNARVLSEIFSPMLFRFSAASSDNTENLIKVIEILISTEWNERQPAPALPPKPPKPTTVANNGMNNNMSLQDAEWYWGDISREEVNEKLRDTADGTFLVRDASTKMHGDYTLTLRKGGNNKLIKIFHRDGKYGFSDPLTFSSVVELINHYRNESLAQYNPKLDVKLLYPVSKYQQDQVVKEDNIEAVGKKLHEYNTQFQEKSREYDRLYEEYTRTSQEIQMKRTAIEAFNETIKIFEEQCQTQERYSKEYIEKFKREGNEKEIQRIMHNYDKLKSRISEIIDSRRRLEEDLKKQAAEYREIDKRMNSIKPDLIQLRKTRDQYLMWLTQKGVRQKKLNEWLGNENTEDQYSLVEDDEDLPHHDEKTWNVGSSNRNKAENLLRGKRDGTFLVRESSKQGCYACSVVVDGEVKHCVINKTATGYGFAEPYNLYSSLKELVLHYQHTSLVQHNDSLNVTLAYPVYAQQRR
Sequence of PI3Kγ (P48736 whole entry): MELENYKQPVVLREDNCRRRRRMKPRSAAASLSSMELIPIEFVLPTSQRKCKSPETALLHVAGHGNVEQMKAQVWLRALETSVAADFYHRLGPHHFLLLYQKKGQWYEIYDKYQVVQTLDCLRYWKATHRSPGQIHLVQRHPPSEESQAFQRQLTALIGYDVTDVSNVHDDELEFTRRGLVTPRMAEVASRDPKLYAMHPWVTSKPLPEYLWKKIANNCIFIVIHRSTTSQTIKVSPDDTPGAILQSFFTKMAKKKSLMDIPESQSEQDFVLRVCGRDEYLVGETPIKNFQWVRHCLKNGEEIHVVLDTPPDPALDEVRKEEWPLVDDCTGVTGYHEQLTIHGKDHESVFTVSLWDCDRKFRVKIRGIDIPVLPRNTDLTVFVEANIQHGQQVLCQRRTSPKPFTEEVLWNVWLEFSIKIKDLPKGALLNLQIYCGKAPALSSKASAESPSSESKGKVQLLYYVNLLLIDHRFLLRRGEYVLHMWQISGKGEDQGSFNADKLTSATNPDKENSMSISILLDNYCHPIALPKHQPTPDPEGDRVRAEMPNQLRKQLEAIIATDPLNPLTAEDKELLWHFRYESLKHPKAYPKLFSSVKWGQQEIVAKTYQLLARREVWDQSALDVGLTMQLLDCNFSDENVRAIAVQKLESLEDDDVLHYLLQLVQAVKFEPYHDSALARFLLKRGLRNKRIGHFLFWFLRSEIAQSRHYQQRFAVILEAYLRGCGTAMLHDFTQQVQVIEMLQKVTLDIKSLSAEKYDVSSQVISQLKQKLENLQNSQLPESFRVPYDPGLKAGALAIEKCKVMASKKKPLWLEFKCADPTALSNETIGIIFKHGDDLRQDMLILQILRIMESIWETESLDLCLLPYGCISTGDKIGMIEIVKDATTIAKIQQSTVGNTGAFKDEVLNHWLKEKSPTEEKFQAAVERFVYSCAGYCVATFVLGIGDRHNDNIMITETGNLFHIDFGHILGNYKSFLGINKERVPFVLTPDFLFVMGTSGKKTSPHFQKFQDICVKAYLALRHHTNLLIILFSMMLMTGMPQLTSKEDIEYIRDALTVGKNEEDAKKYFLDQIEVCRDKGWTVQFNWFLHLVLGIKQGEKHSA
Sequence of PI3Kβ (P42338 whole entry): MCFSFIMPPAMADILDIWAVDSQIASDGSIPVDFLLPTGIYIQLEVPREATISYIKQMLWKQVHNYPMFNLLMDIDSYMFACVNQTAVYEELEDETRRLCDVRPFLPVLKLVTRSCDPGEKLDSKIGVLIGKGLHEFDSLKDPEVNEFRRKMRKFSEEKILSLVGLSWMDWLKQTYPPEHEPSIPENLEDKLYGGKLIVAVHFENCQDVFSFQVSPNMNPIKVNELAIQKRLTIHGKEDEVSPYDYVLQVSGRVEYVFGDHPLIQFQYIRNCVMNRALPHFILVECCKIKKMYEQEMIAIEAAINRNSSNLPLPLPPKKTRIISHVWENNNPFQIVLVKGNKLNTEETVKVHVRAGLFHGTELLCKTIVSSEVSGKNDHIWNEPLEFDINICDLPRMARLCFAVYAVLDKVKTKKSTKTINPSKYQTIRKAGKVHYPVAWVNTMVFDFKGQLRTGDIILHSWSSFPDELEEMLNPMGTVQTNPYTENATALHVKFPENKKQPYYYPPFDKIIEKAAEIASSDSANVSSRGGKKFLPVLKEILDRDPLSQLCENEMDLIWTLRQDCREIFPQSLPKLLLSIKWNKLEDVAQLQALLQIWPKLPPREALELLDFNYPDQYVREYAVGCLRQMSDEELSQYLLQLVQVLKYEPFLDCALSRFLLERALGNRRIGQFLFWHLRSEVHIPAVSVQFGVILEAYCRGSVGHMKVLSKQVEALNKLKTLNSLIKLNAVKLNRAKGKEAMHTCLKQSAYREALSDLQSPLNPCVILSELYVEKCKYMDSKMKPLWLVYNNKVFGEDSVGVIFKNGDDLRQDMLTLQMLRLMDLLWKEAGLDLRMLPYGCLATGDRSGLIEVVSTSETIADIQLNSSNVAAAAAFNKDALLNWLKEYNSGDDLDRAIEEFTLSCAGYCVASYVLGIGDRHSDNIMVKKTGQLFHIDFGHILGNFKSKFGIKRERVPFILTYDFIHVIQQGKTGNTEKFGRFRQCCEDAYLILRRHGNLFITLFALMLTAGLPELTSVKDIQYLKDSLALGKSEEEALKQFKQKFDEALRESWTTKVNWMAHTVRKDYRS
Sequence of PI3Kβ (P27986 whole entry partner): as the sequence (P27986 whole entry partner, the tested form may be a part, canonical isoform) above

Structure (SMILES) | pIC50 (PI3Kδ) | pIC50 (PI3Kγ) | pIC50 (PI3Kβ)
CCOCCn1c([C@H](C)Nc2nc(N)nc(N)c2C#N)nc2cccc(Cl)c2c1=O [Compound 130, (S)-2,4-diamino-6-((1-(5-chloro-3-(2-ethoxyethyl)-4-oxo-3,4-dihydroquinazolin-2-yl)ethyl)amino)pyrimidine-5-carbonitrile] | 8.52 | 6.39 | 6.92
C[C@H](Nc1nc(N)nc(N)c1C#N)c1nc2cccc(Cl)c2c(=O)n1CCCNc1ccccn1 [Compound 5, (S)-2,4-diamino-6-((1-(5-chloro-4-oxo-3-(3-(pyridin-2-ylamino)propyl)-3,4-dihydroquinazolin-2-yl)ethyl)amino)pyrimidine-5-carbonitrile] | 8.30 | 5.66 | 6.03
CS(=O)(=O)CCCn1c([C@@H](Nc2nc(N)nc(N)c2C#N)C2CC2)nc2cccc(Cl)c2c1=O [Compound 118, (S)-2,4-diamino-6-(((5-chloro-3-(3-(methylsulfonyl)propyl)-4-oxo-3,4-dihydroquinazolin-2-yl)(cyclopropyl)methyl)amino)pyrimidine-5-carbonitrile] | 8.70 | 6.24 | 7.89
CC(C)(C)C(=O)NCCCn1c([C@@H](Nc2nc(N)nc(N)c2C#N)C2CC2)nc2cccc(Cl)c2c1=O [Compound 52, (S)—N-(3-(5-chloro-2-(cyclopropyl((2,6-diamino-5-cyanopyrimidin-4-yl)amino)methyl)-4-oxoquinazolin-3(4H)-yl)propyl)pivalamide] | 8.40 | 5.92 | 7.54
CC(CCO)n1c([C@H](C)Nc2ncnc(N)c2C#N)nc2cccc(Cl)c2c1=O (stereo partly drawn) [Compound 84, 4-amino-6-(((1S)-1-(5-chloro-3-(4-hydroxybutan-2-yl)-4-oxo-3,4-dihydroquinazolin-2-yl)ethyl)amino)pyrimidine-5-carbonitrile] | 8.40 | 5.54 | 6.59
N#Cc1c(N)nc(N)nc1N[C@H](c1nc2c(Cl)ccc(Cl)c2c(=O)n1[C@H]1C[C@@H](O)C1)C1CC1 [Compound 96, 2,4-diamino-6-(((S)-cyclopropyl(5,8-dichloro-3-((cis)-3-hydroxycyclobutyl)-4-oxo-3,4-dihydroquinazolin-2-yl)methyl)amino)pyrimidine-5-carbonitrile] | 8.70 | 6.02 | 8.00
C[C@H](Nc1nc(N)nc(N)c1C#N)c1nc2cccc(Cl)c2c(=O)n1N(CCN)Cc1ccccc1 [Compound 10, (S)-2,4-diamino-6-((1-(3-((2-aminoethyl)(benzyl)amino)-5-chloro-4-oxo-3,4-dihydroquinazolin-2-yl)ethyl)amino)pyrimidine-5-carbonitrile] | 6.32 | ≤ 5.00 | 6.08
C[C@H](Nc1ncnc(N)c1C#N)c1nc2cccc(Cl)c2c(=O)n1Cc1cc[nH]n1 [Compound 77, (S)-4-((1-(3-((1H-pyrazol-3-yl)methyl)-5-chloro-4-oxo-3,4-dihydroquinazolin-2-yl)ethyl)amino)-6-aminopyrimidine-5-carbonitrile] | 7.48 | 5.15 | 6.07
CS(=O)(=O)CCCn1c([C@@H](Nc2nc(N)nc(N)c2C#N)C2CC2)nc2c(Cl)ccc(Cl)c2c1=O [Compound 119, (S)-2,4-diamino-6-((cyclopropyl(5,8-dichloro-3-(3-(methylsulfonyl)propyl)-4-oxo-3,4-dihydroquinazolin-2-yl)methyl)amino)pyrimidine-5-carbonitrile] | 8.70 | 5.96 | 8.10
C[C@H](Nc1ncnc(N)c1C#N)c1nc2cccc(Cl)c2c(=O)n1CCCN1CCCCC1 [Compound 134, (S)-4-amino-6-((1-(5-chloro-4-oxo-3-(3-(piperidin-1-yl)propyl)-3,4-dihydroquinazolin-2-yl)ethyl)amino)pyrimidine-5-carbonitrile] | 8.40 | ≤ 5.00 | 6.26
NCCCn1c([C@@H](Nc2ncnc3[nH]cc(Br)c23)C2CC2)nc2cccc(Cl)c2c1=O [Compound 43, (S)-3-(3-aminopropyl)-2-(((5-bromo-7H-pyrrolo[2,3-d]pyrimidin-4-yl)amino)(cyclopropyl)methyl)-5-chloroquinazolin-4(3H)-one] | 8.22 | 5.47 | 8.15
COCCCn1c([C@H](C)Nc2ncnc(N)c2C#N)nc2c(Cl)ccc(Cl)c2c1=O [Compound 106, (S)-4-amino-6-((1-(5,8-dichloro-3-(3-methoxypropyl)-4-oxo-3,4-dihydroquinazolin-2-yl)ethyl)amino)pyrimidine-5-carbonitrile] | 8.10 | < 5.00 | 6.23
CC[C@H](Nc1nc(N)nc(N)c1C#N)c1nc2cccc(Cl)c2c(=O)n1CCCC#N [Compound 115, (S)-2,4-diamino-6-((1-(5-chloro-3-(3-cyanopropyl)-4-oxo-3,4-dihydroquinazolin-2-yl)propyl)amino)pyrimidine-5-carbonitrile] | 8.05 | 6.72 | 6.72
C[C@H](Nc1nc(N)nc(N)c1C#N)c1nc2cccc(Cl)c2c(=O)n1CCCN(C)Cc1ccccc1 [Compound 60, (S)-2,4-diamino-6-((1-(3-(3-(benzyl(methyl)amino)propyl)-5-chloro-4-oxo-3,4-dihydroquinazolin-2-yl)ethyl)amino)pyrimidine-5-carbonitrile] | 8.40 | 5.19 | 6.82
C[C@H](Nc1ncnc(N)c1C#N)c1nc2cccc(Cl)c2c(=O)n1N(C)CCN [Compound 16, (S)-4-amino-6-((1-(3-((2-aminoethyl)(methyl)amino)-5-chloro-4-oxo-3,4-dihydroquinazolin-2-yl)ethyl)amino)pyrimidine-5-carbonitrile] | 8.15 | ≤ 5.00 | 7.38
NCCCn1c([C@@H](Nc2ncnc3cccnc23)C2CC2)nc2cccc(Cl)c2c1=O [Compound 37, (S)-3-(3-aminopropyl)-5-chloro-2-(cyclopropyl(pyrido[3,2-d]pyrimidin-4-ylamino)methyl)quinazolin-4(3H)-one] | 7.80 | 5.32 | 7.24
C[C@H](Nc1ncnc(N)c1C#N)c1nc2cccc(Cl)c2c(=O)n1CCN1CCCC1 [Compound 136, (S)-4-amino-6-((1-(5-chloro-4-oxo-3-(2-(pyrrolidin-1-yl)ethyl)-3,4-dihydroquinazolin-2-yl)ethyl)amino)pyrimidine-5-carbonitrile] | 7.60 | ≤ 5.00 | 6.00
C[C@H](Nc1ncnc2scnc12)c1nc2cccc(Cl)c2c(=O)n1CCC(C)(C)N [Compound 2, (S)-3-(3-amino-3-methylbutyl)-5-chloro-2-(1-(thiazolo[5,4-d]pyrimidin-7-ylamino)ethyl)quinazolin-4(3H)-one] | 7.57 | ≤ 5.00 | 5.82
C[C@H](Nc1nc(N)nc(N)c1Cl)c1nc2cccc(Cl)c2c(=O)n1[C@H]1C[C@@H](O)C1 [Compound 94, 5-chloro-2-((S)-1-((2,6-diamino-5-chloropyrimidin-4-yl)amino)ethyl)-3-((cis)-3-hydroxycyclobutyl)quinazolin-4(3H)-one] | 7.85 | 5.80 | 6.72
N#CCCn1c([C@@H](Nc2nc(N)nc(N)c2Cl)C2CC2)nc2cccc(Cl)c2c1=O [Compound 63, (S)-3-(5-chloro-2-(cyclopropyl((2,6-diamino-5-chloropyrimidin-4-yl)amino)methyl)-4-oxoquinazolin-3(4H)-yl)propanenitrile] | 8.70 | 6.10 | 6.19
CC[C@H](Nc1ncnc(N)c1C#N)c1nc2cccc(Cl)c2c(=O)n1CCCN [Compound 34, (S)-4-amino-6-((1-(3-(3-aminopropyl)-5-chloro-4-oxo-3,4-dihydroquinazolin-2-yl)propyl)amino)pyrimidine-5-carbonitrile] | 7.10 | ≤ 5.00 | 6.60
C[C@H](Nc1nc(N)nc(N)c1C#N)c1nc2c(Cl)cc(F)cc2c(=O)n1[C@H]1C[C@H](O)C1 [Compound 98, 2,4-diamino-6-(((S)-1-(8-chloro-6-fluoro-3-((trans)-3-hydroxycyclobutyl)-4-oxo-3,4-dihydroquinazolin-2-yl)ethyl)amino)pyrimidine-5-carbonitrile] | 7.70 | 5.49 | 6.48
NC(=O)CCn1c([C@@H](Nc2nc(N)nc(N)c2Cl)C2CC2)nc2cccc(Cl)c2c1=O [Compound 68, (S)-3-(5-chloro-2-(cyclopropyl((2,6-diamino-5-chloropyrimidin-4-yl)amino)methyl)-4-oxoquinazolin-3(4H)-yl)propanamide] | 8.30 | 6.00 | 6.28
C[C@H](Nc1ncnc(N)c1C#N)c1nc2cccc(Cl)c2c(=O)n1CCCN [Compound 73, (S)-4-amino-6-((1-(3-(3-aminopropyl)-5-chloro-4-oxo-3,4-dihydroquinazolin-2-yl)ethyl)amino)pyrimidine-5-carbonitrile] | 8.22 | 5.03 | 7.68
N#Cc1c(N)nc(N)nc1N[C@H](c1nc2cccc(Cl)c2c(=O)n1CCCNC1COC1)C1CC1 [Compound 55, (S)-2,4-diamino-6-(((5-chloro-3-(3-(oxetan-3-ylamino)propyl)-4-oxo-3,4-dihydroquinazolin-2-yl)(cyclopropyl)methyl)amino)pyrimidine-5-carbonitrile] | 9.30 | 6.55 | 8.40
C[C@H](Nc1nc(N)nc(N)c1C#N)c1nc2cccc(Cl)c2c(=O)n1CC1CCCNC1 (stereo in doubt) [Compound 124, 2,4-diamino-6-(((S)-1-(5-chloro-4-oxo-3-((S)-piperidin-3-ylmethyl)-3,4-dihydroquinazolin-2-yl)ethyl)amino)pyrimidine-5-carbonitrile] | 8.70 | 5.49 | 7.06
